These results are taken from the Kinase Knowledgebase extract (Sharma et al. 2016).

Each structure is given as a SMILES string.

As a reminder, the IC50 is the concentration that inhibits the measured activity by half.

Chain of EGFR (human) (P00533 whole entry, looked up): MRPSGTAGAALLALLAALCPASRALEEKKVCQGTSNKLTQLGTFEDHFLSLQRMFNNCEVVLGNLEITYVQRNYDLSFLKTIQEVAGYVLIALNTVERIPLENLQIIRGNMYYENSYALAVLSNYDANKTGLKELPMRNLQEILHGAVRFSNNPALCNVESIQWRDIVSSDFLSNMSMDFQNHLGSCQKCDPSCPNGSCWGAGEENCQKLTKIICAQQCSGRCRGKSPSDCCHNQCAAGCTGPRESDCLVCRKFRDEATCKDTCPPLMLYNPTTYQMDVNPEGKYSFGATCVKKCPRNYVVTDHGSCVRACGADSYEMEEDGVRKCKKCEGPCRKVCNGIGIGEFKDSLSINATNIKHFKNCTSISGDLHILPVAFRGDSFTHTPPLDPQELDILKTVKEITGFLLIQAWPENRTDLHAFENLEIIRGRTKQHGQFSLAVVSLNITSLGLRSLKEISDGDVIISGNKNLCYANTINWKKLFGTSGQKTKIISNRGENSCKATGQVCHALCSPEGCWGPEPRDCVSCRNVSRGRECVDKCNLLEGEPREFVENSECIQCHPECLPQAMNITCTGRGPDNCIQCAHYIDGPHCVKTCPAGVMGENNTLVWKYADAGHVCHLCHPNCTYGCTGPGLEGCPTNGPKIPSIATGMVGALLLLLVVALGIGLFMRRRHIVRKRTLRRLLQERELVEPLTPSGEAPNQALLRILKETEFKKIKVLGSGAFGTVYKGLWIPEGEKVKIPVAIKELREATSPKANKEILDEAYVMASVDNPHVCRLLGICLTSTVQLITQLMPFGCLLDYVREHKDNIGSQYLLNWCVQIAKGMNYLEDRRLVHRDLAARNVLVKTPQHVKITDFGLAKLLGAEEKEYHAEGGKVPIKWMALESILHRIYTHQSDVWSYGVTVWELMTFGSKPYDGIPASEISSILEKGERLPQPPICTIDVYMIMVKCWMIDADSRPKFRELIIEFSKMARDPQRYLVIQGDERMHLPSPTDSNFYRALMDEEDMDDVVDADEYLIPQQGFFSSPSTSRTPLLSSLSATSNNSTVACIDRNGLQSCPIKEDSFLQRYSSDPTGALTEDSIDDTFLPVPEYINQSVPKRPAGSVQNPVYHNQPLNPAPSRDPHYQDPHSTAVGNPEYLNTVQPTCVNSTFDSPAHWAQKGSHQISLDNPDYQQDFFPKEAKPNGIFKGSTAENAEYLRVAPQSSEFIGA

One assay addresses EGFR (mouse) (UniProt P00533). The settings on record: baf3.
`O=C(O)c1ccc(-c2cc3c(Nc4cccc(Cl)c4)ncnc3[nH]2)cc1` showed an IC50 of 12 nM.
The same measure, in the same setting: the result for `COc1cc2ncnc(Nc3ccc(F)c(Cl)c3)c2cc1OCCN1CCOCC1` reads 20 nM.
On the same count and under the same terms, the result for `O=C(O)c1cc(N(Cc2ccccc2O)Cc2cc(O)ccc2O)ccc1O` reads 12 nM.

A further assay addresses EGFR (human) (UniProt P00533). The note with it: mcf-10a.
`CCOc1cc2ncnc(Nc3ccccc3F)c2cc1OCC`: the IC50 worked out at 141 nM.
Still for that read-out and setting: for `CCOc1cc2ncnc(NCc3ccc(F)cc3)c2cc1OCC` the value was 188 nM; for `CCOc1cc2ncnc(Nc3cc(F)cc(C(F)(F)F)c3)c2cc1OCC`, above 3000 nM.
Same read-out and setting: the result for `CCOc1cc2ncnc(Nc3cccc(F)c3)c2cc1OCC` reads 99 nM; that for `CCOc1cc2ncnc(Nc3cccc(Cl)c3)c2cc1OCC`, 108 nM; that for `COc1cc2ncnc(Nc3cccc(I)c3)c2cc1OC`, 585 nM.
The same measure, in the same setting: for `COc1cc2ncnc(Nc3cc(F)cc(C(F)(F)F)c3)c2cc1OC` the value was 1630 nM; for `CCOc1cc2ncnc(Nc3cccc(Br)c3)c2cc1OCC`, 78 nM.
In the case of `CCOc1cc2ncnc(Nc3ccc(F)cc3)c2cc1OCC`, the IC50 came out at 622 nM.
The same measure, in the same setting: for `COc1cc2ncnc(Nc3ccccc3F)c2cc1OC` the value was 179 nM.
Same read-out and setting: for `COc1cc2ncnc(Nc3ccc(F)cc3)c2cc1OC` the value was 612 nM.
Same read-out and setting: for `CCOc1cc2ncnc(Nc3cccc(I)c3)c2cc1OCC` the value was 153 nM.
